According to patent US11167006B2 (Shanghai Tianci Life Science Development Co., Ltd., priority 2016, dated 2021):
Square brackets hold non-standard residues; d marks the D form. Peptide text beside a SMILES is read from it. NMeF = CN[C@@H](Cc1ccccc1)C(=O)O

Columns and labels:
[1] = tested on: visceral pain induced by intraperitoneal injection of acetic acid solution in mice; assay: Acetic acid writhing visceral pain model; format: in vivo, mouse
Description: The mice were placed in a transparent polymethyl methacry late box (20×20×30 cm) and adapted to the environment for 10-15 min; after the adaptation, compound 9 was administered intrathecally, intraperitoneally or subcutaneously to the mice. After 5 min, the mice were intraperitoneally injected with 10 ml/kg of 0.6% acetic acid solution, 5 min. after the intraperitoneal injection of acetic acid solution, the writhing response of the mice was recorded for 10 min. The mice developed characteristic reactions such as twisting of the trunk, concave in the abdomen, elevation of the buttocks and extension of the hind limbs, which were recorded as a writhing reaction.
The experimental data was expressed by MPE (maximum possible effect), MPE (%)=100×[(the number of writhing bodies in the physiological saline group− the number of writhing bodies in the drug group)/the number of writhing bodies in the physiological saline group]. The relevant MPE data were expressed as mean±standard error (Means±S.E.M.), the data for differences between groups treated with different drug concentrations were analyzed by one-way ANOVA (Bonferroni test in one-way ANOVA) for statistics and analysis, ***P<0.001 represents that there was a significant difference between the MPE value of the drug-treated group and that of the saline group.

[2] = tested on: CFA-induced inflammatory pain in mouse; assay: Analgesic tolerance and cross-tolerance in CFA-induced inflammatory pain; format: in vivo
Description: CFA-induced inflammatory pain in mouse was detected by an electronic Von Frey tenderness instrument, and the basal pain threshold of normal mice was Firstly determined. Then […] of CFA solution was injected subcutaneously into the mouse paw. After 4 days, the mechanical pain sensitivity value of the injected paw of the mouse was measured. And then compound 9 or morphine was injected for 6 consecutive days (lateral ventricle) or 7 consecutive days (subcutaneously), and the mice in morphine group were given compound 9 on day 7 (lateral ventricle) or day 8 (subcutaneous). The mechanical pain thresholds at different time points after administration were recorded.
The experimental data were expressed as mean± standard error (Means±S.E.M.). Data for differences between groups treated with the same drug were analyzed by one-way ANOVA (Tukey HSD test of one-way ANOVA) for statistics and analysis, *P<0.05. **P<0.005, ***P<0.001 indicates a significant difference between the mechanical pain threshold of the drug-treated group and the pain threshold after the first day of administration.

`C[C@@H](NC(=O)[C@@H](N)Cc1ccc(O)cc1)C(=O)NCC(=O)N(C)[C@@H](Cc1ccccc1)C(=O)NCC(=O)N1CCC[C@H]1C(=O)N[C@@H](CCC(N)=O)C(=O)N[C@@H](CCCNC(=N)N)C(=O)N[C@@H](Cc1ccccc1)C(N)=O` [Compound 9, Tyr-D-Ala-Gly-NMe-Phe-Gly-Pro-Gln-Arg-Phe-NH2] (H-Y[dA]G[NMeF]GPQRF-NH2) was tested, and the “ED50 value (95% confidence interval)” value ([1]; intraperitoneal (i.p.)) was 0.721 (0.594 to 0.875) mg/kg, the “ED50 value (95% confidence interval)” value ([1]; intrathecal (i.t.)) was 0.657 (0.595 to 0.727) pmol and the “ED50 value (95% confidence interval)” value ([1]; subcutaneous (s.c.)) was 0.789 (0.702 to 0.887) mg/kg. The “analgesic tolerance on continuous injection” value ([2]; mechanical pain, lateral ventricle 6 days or subcutaneous 7 days) was “not significantly different from that of the first day” and the “cross-tolerance between compound 9 and morphine” value ([2]; morphine-tolerant mice given compound 9 on day 7 (lateral ventricle) or day 8 (subcutaneous)) was “no cross-tolerance”.
